For this test, the target named is T1, porcine group IB phospholipase A2 (pG-IB); Pla2 (Sus scrofa, UniProt P00592).
T1 construct: gene PLA2G1B; commercial enzyme (Sigma-Aldrich); no tag stated
T1 sequence (P00592 23-146): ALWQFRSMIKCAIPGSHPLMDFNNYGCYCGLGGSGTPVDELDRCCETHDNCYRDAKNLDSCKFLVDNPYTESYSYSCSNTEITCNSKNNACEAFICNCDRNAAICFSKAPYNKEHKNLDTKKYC
In words: colorimetric phenol red assay, […] nm, lecithin hydrolysis; median-effect plot. It is filed as biochemical. Particulars: read-out: Dm (mg/mL) ^a (converted).
Take `O=c1cc(-c2ccc(O)c(-c3c(O)cc(O)c4c(=O)cc(-c5ccc(O)cc5)oc34)c2)oc2cc(O)cc(O)c12` [amenthoflavone]: the IC50 is 200 µM.

Consider `C[C@H]1[C@H](C)CC[C@]2(C(=O)O[C@@H]3O[C@H](CO[C@@H]4O[C@H](CO)[C@@H](O[C@@H]5O[C@@H](C)[C@H](O)[C@@H](O)[C@H]5O)[C@H](O)[C@H]4O)[C@@H](O)[C@H](O)[C@H]3O)CC[C@]3(C)C(=CC[C@@H]4[C@@]5(C)C[C@@H](O)[C@H](O)[C@@](C)(CO)[C@@H]5CC[C@]43C)[C@H]12` [asiaticoside], for which the IC50 was 328 µM.

As to `C[C@@H]1CC[C@@]2(OC1)O[C@H]1C[C@H]3[C@@H]4CC=C5C[C@@H](O)CC[C@]5(C)[C@H]4CC[C@]3(C)[C@H]1[C@@H]2C` [diosgenin], the IC50 was 2330 µM.

Values taken from PMC6017101, “In Silico and In Vitro Study of the Bromelain-Phytochemical Complex Inhibition of Phospholipase A2 (Pla2)” (Molecules : A Journal of Synthetic Chemistry and Natural …, 2018).
